Assay: Human HepG2 cell viability assay in 384 well format
Assay type: toxicity, cell-based
Parameters: dose 125 nL, time 70.5 hour; concentration not given beside the values
Settings: HepG2 cells, read-out: Inhibition

SMILES	cytotoxicity at 70.5 h
CN1CCN(C(=O)[C@@H]2C[C@@H]3CCN(c4cccc(F)c4)C[C@H]3O2)CC1	-11.9%
CCOCC1CN(C(=O)c2cccc(C)n2)Cc2cnn(C)c21 (stereo not given)	-11.5%
Cc1ccc(C(=O)N2CCO[C@H]3[C@H](OCCN(C)C)CC[C@@H]32)cn1	-1.99%
CN1CCN(C[C@@H]2OC[C@H]3CN(Cc4ccncc4)CC[C@H]32)CC1	0.409%
CN(C)C(=O)COCC1CN(CC2CCOCC2)Cc2ncn(C)c21 (stereo not given)	-1.41%
CN1CCN(C[C@H]2OC[C@@H]3CCN(Cc4ccsc4)C[C@@H]32)CC1	-0.843%
Cc1ccc(N2CCc3ncc(CNc4ccccn4)n3CC2)nn1	-1.74%
CN(C)CCN1Cc2ncn(C)c2C(COCC(=O)N(C)C)C1 (stereo not given)	-8.47%
CC1=N[C@@]2(CC[C@@H]3CN(C(=O)NCC(C)C)C[C@@H]32)C(=O)N1C	-0.53%
Cc1noc([C@@]23CCO[C@@H]2CCN(C(=O)c2cc(C)c(C)s2)C3)n1	-0.38%
Cc1ccc(C(=O)N2CCN3C[C@H](Oc4cncnc4)C[C@H]3C2)cn1	-0.158%
O=C(c1ccncc1)N1CCN2C[C@H](Oc3cncnc3)C[C@H]2C1	1.56%
c1ccc(NCc2cn3c(n2)CN(Cc2nccs2)CC3)nc1	-0.336%
Cc1noc([C@@]23CCO[C@@H]2CCN(C(=O)c2cc(C)on2)C3)n1	-3.23%
Cc1noc([C@@]23CCO[C@@H]2CCN(C(=O)c2ccsc2)C3)n1	-1.85%
COCCN1C(=O)[C@]2(CC[C@@H]3CN(C(=O)NC(C)C)C[C@@H]32)N=C1C	25.4%
CC1=N[C@@]2(CC[C@@H]3CN(C(=O)NCC(C)C)C[C@@H]32)C(=O)N1CC(C)C	12.3%
O=C1NC(c2ccccc2)=N[C@@]12CC[C@@H]1CN(Cc3ccoc3)C[C@@H]12	-3.26%
CCS(=O)(=O)N1CCC2(CC(=O)N(c3cnn(C)c3)C2)C1 (stereo not given)	-2.5%
COCC1CN(Cc2cc(C)on2)Cc2cn(CC3CC3)nc21 (stereo not given)	-1.87%
O=C(c1ccsc1)N1CCc2c(CN3CCCC3)n[nH]c2C1	0.233%
O=C1NC(c2ccccc2)=N[C@@]12CC[C@@H]1CN(CC3CCOCC3)C[C@@H]12	23.3%
c1ccc(C[C@H]2[C@H](N3CCOCC3)CCN2Cc2cccnc2)cc1	2.51%
CO[C@H]1CO[C@@]2(CCCN(C(=O)C3=CCCCC3)C2)C1	-2.72%
CN(C)C(=O)N1CCc2c(nnn2C)C1COCc1ccccc1 (stereo not given)	-2.85%

SMILES	cytotoxicity at 70.5 h
O=C([C@H]1C[C@H]2OCC[C@H]2N(C(=O)c2ccncc2)C1)N1CCCCO1	3.71%
Cn1cccc1C(=O)NCc1cnc2n1CCN(C(=O)N1CCCC1)C2	-4.52%
O=C(c1ccsc1)N1CCc2c(CNc3ncccn3)n[nH]c2C1	3.39%
CN(C)C(=O)c1nc2c(s1)CCN(C(=O)c1ccc(Cl)cc1)CC2	-2.44%
O=C(c1cscn1)N1C[C@@H]2[C@@H](C1)OCC(=O)N2CC1CCCC1	-6.35%
COCCC(=O)N1CCN(CCN(C)C)c2ncccc2C1	-6.14%
Cc1csc([C@@H]2C[C@@H]3CCN(Cc4cnn(C)c4)C[C@H]3O2)n1	-8.46%
CN(C)C(=O)COCc1cncc2c1CCN(Cc1nccn1C)C2	-7.66%
c1ccc(O[C@H]2CC[C@H]3[C@H]2OCCN3Cc2nccs2)nc1	-9.23%
O=C(CCO)N1CCOC2(CCCN(C(=O)c3ccco3)C2)C1 (stereo not given)	-7.04%
COCC(=O)N1CC[C@@H]2CN(Cc3cccc(Cl)c3)S(=O)(=O)[C@@H]2CC1	24.3%
COCCN1CCC2(CCN(Cc3nccs3)CC2)C1=O	-8.69%
Cc1noc(C)c1CN1CC2(CCN(C(=O)c3c[nH]cn3)C2)CC1=O (stereo not given)	-11.1%
CCN(C)c1ncnc2c1CCN(C(=O)c1ccno1)CC2	-7.5%
CN(C)S(=O)(=O)N1C[C@@H]2COC[C@]2(COc2ccccn2)C1	-17.2%
O=C([C@H]1C[C@@H]2CCN(c3cccc(F)c3)C[C@H]2O1)N1CCCC1	-14.2%
O=C([C@@H]1C[C@@H]2CCN(c3cccc(F)c3)C[C@H]2O1)N1CCCC1	27.2%
CC[C@@H]1N(Cc2ccc(C)o2)CCC[C@]12CCC(=O)N2CCOC	16.8%
CC[C@@H]1N(Cc2ccoc2)CCC[C@]12CCC(=O)N2CCOC	-5.78%
O=C([C@H]1C[C@@H]2CCN(C3CCOCC3)C[C@H]2O1)N1CCCC1	-4.47%
Cn1cc(CN2C[C@@H]3COC[C@]3(C(=O)NCCc3ccccc3)C2)cn1	-8.15%
CN(C)C(=O)[C@@H]1C[C@@H]2CCN(C3CCOCC3)C[C@H]2O1	-4.53%
CN(C)CCO[C@@H]1CC[C@H]2[C@H]1OCCN2C(=O)c1ccnnc1	22.4%
O=C([C@@H]1C[C@@H]2CCN(C3CCOCC3)C[C@H]2O1)N1CCOCC1	-0.695%
O=C(Cc1cccc(F)c1)N1CCN2C[C@H](Oc3cncnc3)C[C@H]2C1	-2.68%

SMILES	cytotoxicity at 70.5 h
CCOC[C@@H]1CC[C@H]2[C@H](CCN2Cc2c(C)noc2C)O1	-0.0549%
COCCN1C[C@@H](C)[C@@]2(COCCN(C(=O)c3ccno3)C2)C1	-1.41%
Cc1noc(C)c1CN1CC[C@H]2O[C@@H](C(=O)N3CCCC3)CC[C@H]21	6.38%
Cc1noc(C)c1CN1CC[C@@H]2O[C@@H](COCC3CC3)CC[C@@H]21	-4.44%
O=S(=O)(C1CC1)N1CCn2cc(CNc3ccccn3)nc2C1	-0.935%
COCc1cnc2n1CCN(C1CCCC1)C2C (stereo not given)	5.67%
Cc1nc(CN2CCCn3cnc(COCC4CC4)c3C2)cs1	-1.49%
CCCS(=O)(=O)N1CCn2cc(CNc3ccccn3)nc2C1	-2.49%
CO[C@@H]1CCN(c2nnc(C)s2)C[C@@H]1Cc1cccc(C)c1	-0.0343%
O=C(c1cccs1)N1CCC[C@]2(C[C@@H](OCc3ccncc3)CO2)C1	-4.03%
Cc1nc(CN2CCc3ncnc(C4CCOC4)c3CC2)cs1 (stereo not given)	0.032%
Cn1cc(N2CC3(CCN(CC4CC4)C3)CC2=O)cn1 (stereo not given)	-2.96%
Cc1ccc(CN2C[C@H](C(=O)N3CCCCO3)[C@@H]3CCO[C@@H]3C2)o1	-5.78%
Cc1noc([C@@]23CCO[C@@H]2CCN(CC2CCOCC2)C3)n1	-5.71%
Cn1cccc1C(=O)N[C@@H]1CN(CC2CC2)[C@@H]2COC[C@@H]21	-5.94%
COCCN1C[C@@H]2CCCO[C@@H]2[C@H](NC(=O)c2cnccn2)C1	-0.647%
O=C(C1=CCCC1)N1CCC[C@]2(C[C@@H](OCc3ccncc3)CO2)C1	0.64%
Cc1nc(CN2CCn3cc(CNC(=O)C4CCC4)nc3C2)cs1	14%
CO[C@H]1CN(Cc2cccc(C#N)c2)[C@@H]2COC[C@H]12	-0.497%
O=C(O)[C@]12CCCN(Cc3ccccc3)C[C@H]1CN(c1ncccn1)C2	-5.39%
Cc1nnc(N2CC[C@H](OCC3CC3)[C@@H](Cc3ccccc3)C2)s1	11.8%
O=C([C@H]1CN(CCc2ccccc2)C[C@H]2OCC[C@@H]12)N1CCCO1	6.27%
COc1ccc(CN2CCc3ncnc(C4CCOC4)c3CC2)cc1 (stereo not given)	13.2%
O=C1[C@H]2CN(Cc3cccs3)C[C@H]2CN1c1cncnc1	-6.91%
COCC1CN(Cc2ccc(C)o2)Cc2nnn(CC3CC3)c21 (stereo not given)	-5.7%

SMILES	cytotoxicity at 70.5 h
Cc1occc1C(=O)N1CCOCC2(CCN(Cc3nccs3)C2)C1 (stereo not given)	-6.13%
CN(C)C(=O)CO[C@H]1CN(Cc2ccc(F)cc2)[C@@H]2CCCO[C@H]12	-9.38%
Cc1occc1C(=O)N1CCCC2(CCN(CCN3CCCC3)C2=O)C1 (stereo not given)	-11.9%
Cc1ccc(CN2CCOC3(CCCN(C(=O)c4ccco4)C3)C2)s1 (stereo not given)	-10.7%
CN(C)C(=O)CN1CCC2(CCN(Cc3nccs3)CC2)C1=O	16.1%
CC(C)Nc1nc(N2CCCC2)nc2c1CCN(S(C)(=O)=O)CC2	-10.7%
CN(C)CCOCc1nnc2n1CCN(CC1CC1)CC2	25.8%
CCN(CC)Cc1cn2c(n1)CN(C1CCOC1)CC2 (stereo not given)	-4.42%
O=C(c1ccncc1)N1CCN2C[C@H](Oc3cccc(F)c3)C[C@H]2C1	-0.421%
CC1c2ncc(COCc3ccccn3)n2CCN1C1CCCC1 (stereo not given)	-2.61%
CN1CC(=O)N(c2ccccc2)CC12CCN(Cc1nccs1)C2 (stereo not given)	3.9%
CC(C)NC(=O)[C@H]1C[C@@H]2[C@@H](C1)OCCN2Cc1cccnc1	-2.77%
COCC1CN(Cc2ccc(C)o2)Cc2cn(C)nc21 (stereo not given)	3.14%
CN(C)CCO[C@H]1CN(Cc2cccc(C#N)c2)[C@@H]2COC[C@H]12	-1.49%
O=C(CC1CC1)N[C@@H]1CN(Cc2ccncc2)C[C@@H]2CCCO[C@@H]21	-0.814%
COCCN1CCOCC2(CCCN(Cc3ccc(C)o3)C2)C1 (stereo not given)	7.21%
c1cncc(COCc2nnc3n2CCN(Cc2ccsc2)C3)c1	-2.47%
O=C1[C@H]2CN(Cc3ccoc3)C[C@H]2CN1Cc1ccncc1	-1.61%
c1csc(CN2CCO[C@H]3[C@H](OCCN4CCCC4)CC[C@@H]32)n1	-11.1%
COCC1CC2(CCN(Cc3cnn(C)c3)CC2)CN1c1ncccn1 (stereo not given)	-10.8%
Cc1cccc(CN2Cc3ncn(C)c3C(COCC(=O)N(C)C)C2)n1 (stereo not given)	-3.93%
CC1c2ncc(CN3CCN(C)CC3)n2CCN1Cc1cnn(C)c1 (stereo not given)	13.6%
Cn1cnc2c1C(COCc1ccccc1)N(Cc1cccnc1)CC2 (stereo not given)	-0.0183%
Cn1cnc2c1C(COCc1cccnc1)N(Cc1nccs1)CC2 (stereo not given)	-1.3%
Cc1ccc(CN2CC[C@@H](N3CCOCC3)[C@@H]2Cc2cccnc2)o1	-6.64%

From ChEMBL document CHEMBL3507680, “University of Dundee, Gates Library screen for HepG2 cell viability”
